The source of these data is patent publication US5648379A (priority 1990, dated 1997).

SMILES strings stand for the structures. In brackets after ≈: the same amount, converted by molar mass. Entries after “also recorded” stand apart in the source; their conditions may differ. Some results are limits rather than exact numbers.

One test deals with neuraminidase. To be noted: literature; cited from earlier work.
For test [1] the following is noted: literature; cited from earlier work.
For another test, the target named is sheep neuraminidase. The test can be described thus: In vitro inhibition of sheep neuraminidase. The class given is biochemical. To be noted: pH 4.5.
Test [2] concerns H2N2 influenza A virus (A/Sing/1/57). The class given is in vivo, mice.
The subject of test [3] is influenza A/Singapore/1/57 (H2N2). The test can be described thus: microbe, parasite or virus in culture. The class given is cell-based. To be noted: H2N2, MDCK, 72 h, read-out: IC50 Plaque Reduction, Influenza A.
The subject of test [4] is Influenza B/Victoria/102/85. The test can be described thus: microbe, parasite or virus in culture. The class given is cell-based. The conditions noted are these: MDCK, 72 h, read-out: IC50 Plaque Reduction, Influenza B.
Test [5] relates to Neuraminidase in at least some strains of influenza or parainfluenza viruses. The conditions noted are these: in vitro; Zakstel'skaya et al. 1972; cited from earlier work.
A short description of test [6]: Effective dose in vivo (statement in description). The conditions noted are these: compared with DANA.
Another test relates to influenza virus. The test can be described thus: microbe, parasite or virus in culture. To be noted: unidentified influenza virus, read-out: IC50 plaque reduction. The class given is cell-based.
In test [7] the test system is Vibrio cholerae neuraminidase. The conditions noted are these: literature; cited from earlier work.

For the compound `O=C(O)C1=C[C@H](O)[C@@H](NC(=O)C(F)(F)F)[C@H]([C@H](O)[C@H](O)CO)O1` [FANA, 2-deoxy-2,3-dehydro-N-trifluoroacetyl-neuraminic acid], the “activity among neuraminidase inhibitors of the DANA type” value in the test on neuraminidase was “most active”. In addition, in [1], the “anti-viral activity in vivo” value was “not to possess in vivo anti-viral activity; also recorded: inactive in vivo”.

As usually defined, the Ki is the equilibrium dissociation constant of an inhibitor or competing ligand from its target. One may read the IC50 as the concentration needed to halve the response being measured. `CC(=O)N[C@H]1[C@H]([C@H](O)[C@H](O)CO)OC(C(=O)O)=C[C@@H]1N=C(N)N` [Compound 7, Ammonium 5-Acetamido-4-guanidino-2,3,4,5-tetradeoxy-D-glycero-D-galacto-non-2-enopyranosonate] gave an inhibitory constant (Ki) at sheep neuraminidase above 10 mM. The “% AUC (lung virus titre, compared to untreated mice)” value in test [2] (Experiment 2, 12.5 mg/kg intranasal, days 1-3) was 0.03%. Moreover, the “titre of virus in lung tissue” value in test [2] (intranasal, before and during challenge, 1 to 3 days after infection) is given as “reduced the titre of virus in lung tissue”. Moreover, the IC50 in [3] and in test [4] was 1600 nM throughout.

Regarding `CC(=O)NC1C(O)CC(OC2C(O)C(CO)OC(O)C2NC(C)=O)(C(=O)O)OC1C(O)C(O)CO` [O-α-N-acetyl-D-neuraminosyl-)2→3)-2-acetamido-2-deoxy-D-glucose], the “inhibition of influenza or parainfluenza virus neuraminidase” value in [5] is “inhibited in vitro”.

`COC(=O)C1=C[C@H](O)[C@@H](NC(C)=O)[C@H]([C@H](O)[C@H](O)CO)O1` [methyl ester of DANA]: in test [6], the “effective dose, in words” value was “effective at proportionally higher dose”. Further, the concentration for half-maximal inhibition (IC50) in the test with influenza virus lay in the range of 50 to 100 µg/mL (≈ 164 to 328 µM).

Regarding `CC(=O)NC1C(O)CC(C(=O)O)OC1C(O)C(O)CO` (centres unmarked), in [7], the “inhibition of Vibrio cholerae neuraminidase” value was “did not inhibit”.
